Several values for one entry are separate records, joined by “and”; a condition that tells them apart may be missing. Equal entries are not always repeated.
Legend:
SmCB1 [1] = target: T1, SmCB1 (Schistosoma mansoni, UniProt Q8MNY2, T185A/T300A); test: SmCB1 kinetic inhibition assay (IC50) with fluorogenic substrate Cbz–Phe–Arg–AMC; format: biochemical; conditions: recombinant SmCB1, Cbz–Phe–Arg–AMC, pH 5.5; mean ± SE, triplicate; n.i.: no significant inhibition at 100 μM
Text: Thirty-four peptidomimetic vinyl sulfone analogs (including vinyl sulfonamides and vinyl sulfonate esters) were explored as potential inhibitors of SmCB1 to infer the structural requirements of the inhibitor-binding subsites in the enzyme active site cleft. The compound scaffold is defined by positions P3 through P1′, and the substitutions were selected to provide a high diversity at P2 and P1′ (Table 1). These two positions were recently reported to display large differences in the subsite interaction energy in response to their structural modifications.[10] The compounds were screened in vitro against recombinant SmCB1, and their IC50 values were determined using a kinetic inhibition assay with the fluorogenic substrate Cbz–Phe–Arg–AMC.
(§1) Inhibition measurements were performed in triplicates in 96-well microplates (100 μL assay volume) at 37 °C. […] The kinetics of product release was continuously monitored in an Infinite M1000 microplate reader (Tecan) at excitation and emission wavelengths of 360 and 465 nm, respectively. The IC50 values were determined by nonlinear regression using GraFit software. To determine the inhibition constant k2nd, the enzyme (40 pM SmCB1 or 60 pM HuCB) was added to a mixture of the fluorogenic substrate Cbz–Phe–Arg–AMC (20 μM for SmCB1 and 33 μM for HuCB) and an inhibitor (0–1 μM) in the assay buffer under assay conditions as above. The hydrolysis of substrate was monitored for 30 min in a microplate reader as described above. An observed rate constant, kobs, was calculated at each inhibitor concentration by fitting the progress curve to the equation P = vi/kobs(1 – e^–kobst), where P is the product formation, vi is the initial velocity, and t is the reaction time. For both enzymes, kobs varied linearly with the inhibitor concentration showing that the dependence of kobs on the inhibitor concentration is nonsaturating. […] The second order rate constant, k2nd, was determined by fitting to the linear equation kobs = (k2nd[I])/(1 + [S]/KM), where [S] is the substrate concentration, [I] is the inhibitor concentration, and KM is the Michaelis–Menten constant. KM values determined for SmCB1 and HuCB were 25 and 38 μM, respectively.

SmCB1 [2] = test: biochemical; format: biochemical, Schistosoma mansoni; conditions: k2nd for SmCB1 to k2nd for human cathepsin B
Method: (§2) (A) Sensitivity of SmCB1 and its human ortholog cathepsin B (HuCB) to inhibitors. The second order rate constants were measured in a kinetic activity assay with the fluorogenic peptide substrate Cbz–Phe–Arg–AMC at pH 5.5. […] Resulting phenotypes observed at three time points were graded by the severity score ranging from 0 to 4, with 4 being the most severe (see Figure S2A,B).
as §1, with “above.” for “above. An observed rate constant, kobs, was calculated at each inhibitor concentration by fitting the progress curve to the equation P = vi/kobs(1 – e^–kobst), where P is the product formation, vi is the initial velocity, and t is the reaction time. For both enzymes, kobs varied linearly with the inhibitor concentration showing that the dependence of kobs on the inhibitor concentration is nonsaturating.”, “constant.” for “constant. KM values determined for SmCB1 and HuCB were 25 and 38 μM, respectively.”

SmCB1 [3] = target: T1, SmCB1; test: biochemical; format: biochemical; conditions: pH 5.5, read-out: second order rate constant k2nd SmCB1
Method: as §2
as §1, with “above.” for “above. An observed rate constant, kobs, was calculated at each inhibitor concentration by fitting the progress curve to the equation P = vi/kobs(1 – e^–kobst), where P is the product formation, vi is the initial velocity, and t is the reaction time. For both enzymes, kobs varied linearly with the inhibitor concentration showing that the dependence of kobs on the inhibitor concentration is nonsaturating.”, “constant.” for “constant. KM values determined for SmCB1 and HuCB were 25 and 38 μM, respectively.”

human cathepsin B (HuCB) = target: T2, human cathepsin B (HuCB) (Homo sapiens, UniProt P07858); test: Second order rate constant (k2nd) of inhibition, human cathepsin B; format: biochemical
T2 construct: purchased Calbiochem
Method: as §2
as §1, with “above.” for “above. An observed rate constant, kobs, was calculated at each inhibitor concentration by fitting the progress curve to the equation P = vi/kobs(1 – e^–kobst), where P is the product formation, vi is the initial velocity, and t is the reaction time. For both enzymes, kobs varied linearly with the inhibitor concentration showing that the dependence of kobs on the inhibitor concentration is nonsaturating.”, “constant.” for “constant. KM values determined for SmCB1 and HuCB were 25 and 38 μM, respectively.”

[4] = test system: S. mansoni newly transformed schistosomula (NTS); test: Parasite assay and phenotype scoring of newly transformed schistosomula; format: cell-based, Schistosoma mansoni; conditions: score 0 to 4, 4 most severe
Method: The NTS were exposed to 1 and 10 μM inhibitors, and the resulting phenotypes were graded 0 through 4 from the least to the most severe (Figure 4B).[25],[26] […] The investigated inhibitors were also tested for their cytotoxicity against four human cell lines over 72 h.
Newly transformed schistosomula (NTS) of S. mansoni were prepared by mechanically transforming infective larvae (cercariae) as described previously.[67] NTS (200–300 parasites) were incubated in 200 μL of Basch Medium 169[68] containing 5% heat-inactivated fetal bovine serum, 100 U/mL penicillin, and 100 μg/mL streptomycin at 5% CO2 and 37 °C.[67],[69] […] We use single word or phrase “descriptors”[35] to record changes in movement, shape, and translucence (Figure S2).
Figure S2. Antischistosomal activity, cytotoxicity, and plasma stability of selected vinyl sulfone inhibitors. A. Induction of phenotypic alterations by the inhibitors was determined with newly transformed schistosomula (NTS) of S. mansoni. The inhibitors were tested at 1 and 10 µM concentrations for 24, 48 and 72 h, and the resulting phenotypes are shown as descriptor s .2 B. Example […]
captured using a Zeiss Axiovert 40 C inverted microscope (10x objective) and a Zeiss AxioCam MRc digital camera controlled by AxioVision 40 (v. 4.8.1.0) software. Scale bar = 0.2 mm. C. […]

[5] = In vitro plasma stability; format: in vitro ADME; conditions: 5 μM inhibitor, pooled human plasma, 30 min, 37°C
Method: Finally, we evaluated the metabolic stability of the inhibitors in human plasma in vitro. The stability was expressed as the percentage of parental compound remaining in plasma after 30 min of incubation.
Figure S2. Antischistosomal activity, cytotoxicity, and plasma stability of selected vinyl sulfone inhibitors. A. Induction of phenotypic alterations by the inhibitors was determined with newly transformed schistosomula (NTS) of S. mansoni. The inhibitors were tested at 1 and 10 µM concentrations for 24, 48 and 72 h, and the resulting phenotypes are shown as descriptor s .2 B. Example of an inhibitor-induced phenotype in NTS of S. mansoni versus untreated controls. Images were captured using a Zeiss Axiovert 40 C inverted microscope (10x objective) and a Zeiss AxioCam MRc digital camera controlled by AxioVision 40 (v. 4.8.1.0) software. Scale bar = 0.2 mm. C. Cytotoxicity of the inhibitors towards four human cell lines expressed as % viability vs. untreated cells. Cells were treated with the indicated concentration of the compounds for 72 h and assayed by means of the XTT test (as described previously3). Standard deviation values were within 10% of the mean of tetraplicates. D. In vitro plasma stability was determined for 5 µM inhibitors incubated with pooled human plasma (Biowest) for 30 min at 37°C. The samples were deproteinized by acetonitrile a nd quantified by LC-MS (Exion LC AD/QTrap 6500+, AB Sciex). Data are expressed as a percentage of the remaining parent compound after 30 min incubation; standard deviations of the means ar e gi ve n for duplicate measurements.
(1 picture or pasted object on this page, not shown here)

T1 sequence (Q8MNY2 87-340 T185A/T300A): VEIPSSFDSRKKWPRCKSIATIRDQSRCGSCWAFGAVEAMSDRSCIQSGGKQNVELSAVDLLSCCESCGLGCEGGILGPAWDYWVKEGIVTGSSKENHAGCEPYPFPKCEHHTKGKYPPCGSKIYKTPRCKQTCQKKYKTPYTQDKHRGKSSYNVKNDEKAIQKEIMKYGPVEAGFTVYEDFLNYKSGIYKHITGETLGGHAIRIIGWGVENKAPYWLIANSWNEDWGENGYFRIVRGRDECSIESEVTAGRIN

Row | Structure (SMILES) | IC50 (SmCB1 [1]) | further results
1 | O=C(N[C@H](/C=C/S(=O)(=O)c1ccccc1)CCc1ccccc1)[C@H](CCS(=O)(=O)c1ccccc1)NC(=O)N1CCOCC1 [CRA-009] | 186 ± 19 nM | 
2 | O=C(N[C@H](/C=C/S(=O)(=O)c1ccccc1)CCc1ccccc1)[C@H](CS(=O)(=O)Cc1ccccc1OC(F)F)NC(=O)N1CCOCC1 [CRA-012] | 477 ± 43 nM | 
3 | CCC[C@@H](/C=C/S(=O)(=O)c1ccccc1)NC(=O)[C@H](CC1CCCCC1)NC=NS(=O)(=O)c1ccccc1 [CRA-359] | 9990 ± 280 nM | 
4 | CCCC[C@@H](/C=C/S(=O)(=O)c1ccccc1)NC(=O)[C@H](Cc1cc(I)c(O)c(I)c1)NC(=O)OC(C)(C)C [CRA-372] | 6250 ± 322 nM | 
5 | CCCC[C@@H](/C=C/S(=O)(=O)c1ccccc1)NC(=O)[C@@H](N)Cc1cc(I)c(O)c(I)c1 [CRA-373] | 425 ± 46 nM | 
6 | CCC[C@@H](/C=C/S(=O)(=O)c1ccccc1)NC(=O)[C@H](Cc1ccccc1Cl)NC1=NS(=O)(=O)c2ccccc21 [CRA-383] | 10000 to 100000 nM | 
7 | CCC[C@@H](/C=C/S(=O)(=O)c1ccccc1)NC(=O)[C@H](CSCc1ccccn1)NC1=NS(=O)(=O)c2ccccc21 [CRA-393] | 3450 ± 346 nM | 
8 | O=C(N[C@@H](Cc1cc(I)c(O)c(I)c1)C(=O)N[C@H](/C=C/S(=O)(=O)c1ccccc1)CCc1ccccc1)c1ccc(N2CCOCC2)cc1 [CRA-422] | 665 ± 98 nM | 
9 | CCC[C@@H](/C=C/S(=O)(=O)c1ccccc1)NC(=O)[C@H](Cc1ccccc1)NC(=O)N1CCC(N2CCOCC2)CC1 [CRA-446] | 44.6 ± 6.1 nM | 
10 | CCC[C@@H](/C=C/S(=O)(=O)c1ccccc1)NC(=O)[C@H](Cc1ccc2ccccc2c1)NC(=O)N1CCC(N2CCOCC2)CC1 [CRA-547] | ~40 nM and 39.2 nM | 
11 | CCC[C@@H](/C=C/S(=O)(=O)c1ccccc1)NC(=O)[C@H](Cc1ccc(F)cc1)NC(=O)N1CCC(N2CCOCC2)CC1 [CRA-552] | 202 ± 25 nM | 
12 | CCCC[C@@H](/C=C/S(=O)(=O)c1ccccc1)NC(=O)[C@H](Cc1ccccc1)NC(=O)N1CCC(N2CCOCC2)CC1 [CRA-553] | 13.2 ± 1.3 nM | 
13 | O=C(N[C@H](/C=C/S(=O)(=O)c1ccccc1)CCc1ccccc1)[C@H](Cc1ccccc1)NC(=O)N1CCC(N2CCOCC2)CC1 [CRA-554] | 6 ± 0.89 nM | 
14 | CCC[C@@H](/C=C/S(=O)(=O)c1ccccc1)NC(=O)C1(NC(=O)N2CCN(C)CC2)CCCCC1 [CRA-555] |  | Inhibition IC50 (SmCB1 [1]): n.i.
15 | CCC[C@@H](/C=C/S(=O)(=O)c1ccccc1)NC(=O)[C@H](Cc1c(F)cccc1F)NC(=O)c1ccc(-c2ccccc2Cl)cc1 [CRA-845] |  | Inhibition IC50 (SmCB1 [1]): n.i.
16 | O=C(N[C@H](/C=C/S(=O)(=O)c1ccccc1)CCc1ccccc1)[C@H](CS(=O)(=O)Cc1ccccc1)NC(=O)N1CCOCC1 [CRA-891] | 212 ± 10 nM | 
17 | CCCC[C@@H](/C=C/S(=O)(=O)c1ccccc1)NC(=O)[C@H](Cc1ccccc1)NC(=O)N1CCC(N2CCCCC2)CC1 [CRA-892] | 7.5 ± 0.58 nM | 
18 | C[C@@H](/C=C/S(=O)(=O)NCCc1ccccc1)NC(=O)[C@H](Cc1ccccc1)NC(=O)OCc1ccccc1 [WRR-186] | 629 ± 57 nM | 
19 | C[C@@H](/C=C/S(=O)(=O)NCc1ccc(F)cc1)NC(=O)[C@H](Cc1ccccc1)NC(=O)OCc1ccccc1 [WRR-196] | 1250 ± 173 nM | 
20 | C[C@@H](/C=C/S(=O)(=O)NCc1ccc(F)cc1F)NC(=O)[C@H](Cc1ccccc1)NC(=O)OCc1ccccc1 [WRR-197] | 1130 ± 120 nM | 
21 | C[C@@H](/C=C/S(=O)(=O)Oc1ccccc1)NC(=O)[C@H](Cc1ccccc1)NC(=O)OCc1ccccc1 [WRR-199] | 2.55 ± 0.2 nM | 
22 | C[C@@H](/C=C/S(=O)(=O)NCc1ccc(Cl)cc1)NC(=O)[C@H](Cc1ccccc1)NC(=O)OCc1ccccc1 [WRR-201] | 541 ± 76 nM | 
23 | CNS(=O)(=O)/C=C/[C@H](C)NC(=O)[C@H](Cc1ccccc1)NC(=O)OCc1ccccc1 [WRR-206] | 93.7 ± 7.3 nM | 
24 | O=C(N[C@@H](Cc1ccccc1)C(=O)N[C@H](/C=C/S(=O)(=O)c1ccccn1)CCc1ccccc1)OCc1ccccc1 [WRR-255] | 1.5 ± 0.13 nM | 
25 | O=C(N[C@@H](Cc1ccccc1)C(=O)N[C@H](/C=C/S(=O)(=O)CCc1ccccc1)CCc1ccccc1)OCc1ccccc1 [WRR-257] | 9520 ± 607 nM | 
26 | O=C(N[C@@H](Cc1ccccc1)C(=O)N[C@H](/C=C/S(=O)(=O)Oc1ccc([N+](=O)[O-])cc1)CCc1ccccc1)OCc1ccccc1 [WRR-258] | 50.1 ± 4.9 nM | 
27 | CN1CCN(C(=O)N[C@@H](Cc2ccccc2)C(=O)N[C@H](/C=C/S(=O)(=O)NOCc2ccccc2)CCc2ccccc2)CC1 [WRR-286] | ~0.6 nM and 0.61 nM | selectivity ratio (SmCB1 [2]): about 6.0; kinact/KI (SmCB1 [3]): 200000 M⁻¹ s⁻¹; second order rate constant k2nd HuCB (human cathepsin B (HuCB); Cbz–Phe–Arg–AMC, pH 5.5, mean of triplicate): 33 618 M^–1 s^–1; kinact/KI (human cathepsin B (HuCB); pH 5.5, read-out: second order rate constant k2nd HuCB): 33600 M⁻¹ s⁻¹; severity score ([4]; 1 μM, 24 hours): 0; severity score ([4]; 1 μM, 48 hours): 0; severity score ([4]; 1 μM, 72 hours): 4; severity score ([4]; 10 μM, 24 hours): 0; severity score ([4]; 10 μM, 48 hours): 4; severity score ([4]; 10 μM, 72 hours): 4; percentage of remaining parent compound in plasma [5]: 107%
28 | CN1CCN(C(=O)N[C@@H](Cc2ccccc2)C(=O)N[C@H](/C=C/S(=O)(=O)Oc2ccc(F)cc2)CCc2ccccc2)CC1 [WRR-353] | 119 ± 16 nM | 
29 | CCOC(=O)C1CCN(C(=O)N[C@@H](CC2CCCCC2)C(=O)N[C@H](/C=C/S(=O)(=O)c2ccccc2)CCc2ccccc2)CC1 [WRR-436] | 72.1 ± 9.1 nM | 

Source: PMC8154419, “Druggable Hot Spots in the Schistosomiasis Cathepsin B1 Target Identified by Functional and Binding Mode Analysis of Potent Vinyl Sulfone Inhibitors” (ACS Infectious Diseases, 2020)
